Test results reported in patent US20180360790A1, “NUTRITIONAL COMPOSITIONS AND INFANT FORMULAS TO PROMOTE MYELINATION IN THE BRAIN” (NESTEC S.A., priority 2015, published 2018).

Test system: brain myelination (myelin water fraction)
Assay: Cross-sectional correlation of infant formula nutrient composition with brain myelination (mcDESPOT MRI, general linear model)
Format: in vivo, infants and young children
Details: single GLM of quantified formula nutrients and child age vs myelin water fraction; children up to 5 years; 5 most frequently used formulas
Protocol: This technique provides a quantitative measure, the Myelin Water Fraction (MWF), which is a surrogate marker of myelin content. When mapped as a function of time across early childhood, myelination trajectories can be generated. Infant formula composition: six infant formulas fed to infants participating in study were analyzed for their composition/level of myelin-relevant nutrients. […] Infants included in this study were drawn from a larger longitudinal study of normal brain and behavioral development: the Brown university Assessment of Myelination and Behavior Across Maturation (BAMBAM). To focus on neurotypical development, children with known potential risk factors for learning, neurologic, or psychiatric disorders were specifically excluded during recruitment and enrollment. […] Each infant was scanned using the mcDESPOT (multicomponent Driven Equilibrium Single Pulse Observation of T1 and T2) white matter imaging technique Deoni et al. (Magn. Reson. Med. 2008, 60:1372-1387), which provides a quantitative measure of the myelin water fraction (MWF) at each imaging point throughout the brain. […] Mean values for each region were then determined for each child and used for subsequent developmental analysis and trajectory modeling.

Row | Substance | nutritional drivers for myelination indicated by the final model
1 | Iron | identified drivers
2 | sphingomyelin | identified drivers
